“And” between values parts separate entries of the source, which are not always exact repeats. Equal values may be shown once. Read-outs that look alike come from different tables or passages of the source.
Columns and labels:
[1] = target: T1, panel of human receptors and channels (Homo sapiens, UniProt P04150); assay type: binding; conditions: GR (h) (agonist radioligand); Rep1, Rep2, Mean
T1 construct: purchased Eurofins CEREP

[2] = target: T2, panel of human receptors and channels (Homo sapiens, UniProt P06401); assay type: binding; conditions: PR (h) (agonist radioligand); Rep1, Rep2, Mean
T2 construct: purchased Eurofins CEREP

[3] = target: T3, panel of human receptors and channels (Homo sapiens, UniProt P07550); assay type: binding; conditions: β2 (h) (antagonist radioligand); Rep1, Rep2, Mean
T3 construct: purchased Eurofins CEREP

[4] = target: T4, panel of human receptors and channels (Homo sapiens, UniProt P21728); assay type: binding; conditions: D1 (h) (antagonist radioligand); Rep1, Rep2, Mean
T4 construct: purchased Eurofins CEREP

[5] = target: T5, panel of human receptors and channels (Homo sapiens, UniProt P21917); assay type: binding; conditions: D4.4 (h) (antagonist radioligand); Rep1, Rep2, Mean
T5 construct: purchased Eurofins CEREP

[6] = target: T6, panel of human receptors and channels (Homo sapiens, UniProt P32238); assay type: binding; conditions: CCK1 (CCKA) (h) (agonist radioligand); Rep1, Rep2, Mean
T6 construct: purchased Eurofins CEREP

[7] = target: T7, panel of human receptors and channels (Homo sapiens, UniProt P32239); assay type: binding; conditions: CCK2 (CCKB) (h) (agonist radioligand); Rep1, Rep2, Mean
T7 construct: purchased Eurofins CEREP

[8] = target: T8, panel of human receptors and channels (Homo sapiens, UniProt P43116); assay type: binding; conditions: EP2 (h) (agonist radioligand); Rep1, Rep2, Mean
T8 construct: purchased Eurofins CEREP

[9] = test system: panel of human receptors and channels; assay type: binding; conditions: for % Inhibition of Control Specific Binding: Rep1, Rep2, Mean
[10] = test system: rat primary hepatocytes; assay: Primary hepatocyte viability (CellTiter-Blue), rat; assay type: cell-based; conditions: for %Viability: Rat primary hepatocytes
Experimental: Safety studies were performed by commercial services using their standard protocols. […] Genotoxicity was investigated using the Ames test (Bacterial Reverse Mutation Assay) (Covance Laboratories Ltd, North Yorkshire, England). In vitro mammalian cell micronucleus screening assay was studied in human peripheral blood lymphocytes (BioReliance Corporation, Rockville, USA). Cardiotoxicity was determined against the hERG channel in an automated patch clamp assay using the Qpatch or against the hNaV 1.5, hKV 1.5 and hCaV 1.2 using a manual patch-clamp technique (Metrion Biosciences, Cambridge, UK). Cytotoxicity in human and rat primary hepatocytes was assessed using the CellTiter-Blue assay performed by commercial services (KaLy-Cell). The viability of HepG2 cells was monitored through the addition of 1 mM resazurin. Following 6 h incubation, the relative amount of reduced resazurin was detected in a fluorimeter and compared to the assay controls (vehicle: 0.1% DMSO and positive control: 10 µM puromycin).

T4 sequence (P21728 whole entry): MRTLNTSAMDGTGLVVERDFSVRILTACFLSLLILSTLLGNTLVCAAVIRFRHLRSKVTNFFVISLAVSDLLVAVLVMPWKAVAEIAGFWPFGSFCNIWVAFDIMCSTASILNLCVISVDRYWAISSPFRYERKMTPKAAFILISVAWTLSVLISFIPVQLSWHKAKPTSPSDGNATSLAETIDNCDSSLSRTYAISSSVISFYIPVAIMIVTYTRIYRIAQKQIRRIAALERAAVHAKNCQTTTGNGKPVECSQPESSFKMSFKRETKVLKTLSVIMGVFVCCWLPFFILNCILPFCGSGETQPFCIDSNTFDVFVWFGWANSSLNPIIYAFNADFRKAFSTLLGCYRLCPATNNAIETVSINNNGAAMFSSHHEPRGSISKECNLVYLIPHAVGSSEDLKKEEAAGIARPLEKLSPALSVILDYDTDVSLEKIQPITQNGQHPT
T5 sequence (P21917 whole entry): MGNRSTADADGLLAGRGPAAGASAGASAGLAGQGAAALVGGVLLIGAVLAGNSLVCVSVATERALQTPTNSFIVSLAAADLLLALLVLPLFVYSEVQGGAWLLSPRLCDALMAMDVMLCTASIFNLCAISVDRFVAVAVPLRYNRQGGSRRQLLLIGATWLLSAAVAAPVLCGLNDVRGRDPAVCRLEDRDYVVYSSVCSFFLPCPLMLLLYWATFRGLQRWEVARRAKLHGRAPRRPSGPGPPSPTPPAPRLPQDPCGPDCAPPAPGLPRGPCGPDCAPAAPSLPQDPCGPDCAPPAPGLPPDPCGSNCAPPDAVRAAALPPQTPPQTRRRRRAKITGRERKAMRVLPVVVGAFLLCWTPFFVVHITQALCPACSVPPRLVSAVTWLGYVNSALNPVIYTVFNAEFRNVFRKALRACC
T2 sequence (P06401 whole entry): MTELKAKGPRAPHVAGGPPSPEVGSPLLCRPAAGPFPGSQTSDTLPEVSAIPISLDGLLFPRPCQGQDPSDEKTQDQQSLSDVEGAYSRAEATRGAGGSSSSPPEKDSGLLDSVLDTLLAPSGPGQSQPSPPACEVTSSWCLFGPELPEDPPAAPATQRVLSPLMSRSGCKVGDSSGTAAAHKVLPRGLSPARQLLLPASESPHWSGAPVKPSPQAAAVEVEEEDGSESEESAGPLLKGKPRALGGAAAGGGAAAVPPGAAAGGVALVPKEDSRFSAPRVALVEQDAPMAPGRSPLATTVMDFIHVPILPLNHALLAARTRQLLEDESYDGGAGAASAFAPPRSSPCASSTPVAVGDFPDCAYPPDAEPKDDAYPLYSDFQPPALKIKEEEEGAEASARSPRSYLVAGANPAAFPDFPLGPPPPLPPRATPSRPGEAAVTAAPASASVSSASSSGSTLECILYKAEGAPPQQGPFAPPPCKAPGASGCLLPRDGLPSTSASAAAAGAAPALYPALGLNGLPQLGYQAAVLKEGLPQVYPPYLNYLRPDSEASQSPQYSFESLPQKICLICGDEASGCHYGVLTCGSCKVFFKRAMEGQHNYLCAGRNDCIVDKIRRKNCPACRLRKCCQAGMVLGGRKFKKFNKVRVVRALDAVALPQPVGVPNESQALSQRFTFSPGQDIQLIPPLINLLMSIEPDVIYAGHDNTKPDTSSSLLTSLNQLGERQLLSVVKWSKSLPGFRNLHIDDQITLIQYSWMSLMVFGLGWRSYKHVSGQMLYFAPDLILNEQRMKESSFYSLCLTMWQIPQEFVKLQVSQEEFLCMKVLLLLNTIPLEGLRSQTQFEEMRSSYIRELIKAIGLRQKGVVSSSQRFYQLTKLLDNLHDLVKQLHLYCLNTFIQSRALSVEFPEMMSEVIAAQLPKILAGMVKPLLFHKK
T8 sequence (P43116 whole entry): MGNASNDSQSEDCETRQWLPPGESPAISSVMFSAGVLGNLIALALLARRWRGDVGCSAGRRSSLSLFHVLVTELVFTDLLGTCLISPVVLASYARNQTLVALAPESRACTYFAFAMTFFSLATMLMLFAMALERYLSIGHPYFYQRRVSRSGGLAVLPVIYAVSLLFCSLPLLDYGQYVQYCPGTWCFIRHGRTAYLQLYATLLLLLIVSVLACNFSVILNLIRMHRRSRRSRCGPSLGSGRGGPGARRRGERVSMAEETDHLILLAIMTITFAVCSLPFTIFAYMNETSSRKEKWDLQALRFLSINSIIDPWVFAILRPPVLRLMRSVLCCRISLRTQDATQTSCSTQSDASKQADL
T3 sequence (P07550 whole entry): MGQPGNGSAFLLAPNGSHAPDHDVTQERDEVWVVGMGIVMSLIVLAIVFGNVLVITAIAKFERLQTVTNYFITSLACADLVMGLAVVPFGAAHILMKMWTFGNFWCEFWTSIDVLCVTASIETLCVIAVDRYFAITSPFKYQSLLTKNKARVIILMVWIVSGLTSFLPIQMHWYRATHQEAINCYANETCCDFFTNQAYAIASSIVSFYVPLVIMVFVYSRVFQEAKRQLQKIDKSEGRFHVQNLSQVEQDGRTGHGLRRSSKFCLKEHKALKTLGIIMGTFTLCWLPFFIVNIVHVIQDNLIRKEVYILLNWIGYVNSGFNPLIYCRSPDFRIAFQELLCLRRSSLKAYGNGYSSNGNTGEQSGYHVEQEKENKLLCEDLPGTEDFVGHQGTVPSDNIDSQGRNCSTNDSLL
T6 sequence (P32238 whole entry): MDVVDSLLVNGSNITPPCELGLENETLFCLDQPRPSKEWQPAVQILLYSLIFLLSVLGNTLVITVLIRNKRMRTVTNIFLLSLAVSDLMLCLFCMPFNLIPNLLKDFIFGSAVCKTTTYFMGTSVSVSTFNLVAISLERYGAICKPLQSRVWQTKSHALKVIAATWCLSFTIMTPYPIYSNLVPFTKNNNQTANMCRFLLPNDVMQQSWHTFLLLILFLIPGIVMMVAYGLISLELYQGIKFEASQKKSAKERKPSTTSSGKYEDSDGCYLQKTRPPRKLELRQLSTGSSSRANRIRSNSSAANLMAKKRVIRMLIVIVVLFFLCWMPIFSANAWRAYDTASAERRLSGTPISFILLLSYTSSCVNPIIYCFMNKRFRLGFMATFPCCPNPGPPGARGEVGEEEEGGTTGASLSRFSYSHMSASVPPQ
T7 sequence (P32239 whole entry): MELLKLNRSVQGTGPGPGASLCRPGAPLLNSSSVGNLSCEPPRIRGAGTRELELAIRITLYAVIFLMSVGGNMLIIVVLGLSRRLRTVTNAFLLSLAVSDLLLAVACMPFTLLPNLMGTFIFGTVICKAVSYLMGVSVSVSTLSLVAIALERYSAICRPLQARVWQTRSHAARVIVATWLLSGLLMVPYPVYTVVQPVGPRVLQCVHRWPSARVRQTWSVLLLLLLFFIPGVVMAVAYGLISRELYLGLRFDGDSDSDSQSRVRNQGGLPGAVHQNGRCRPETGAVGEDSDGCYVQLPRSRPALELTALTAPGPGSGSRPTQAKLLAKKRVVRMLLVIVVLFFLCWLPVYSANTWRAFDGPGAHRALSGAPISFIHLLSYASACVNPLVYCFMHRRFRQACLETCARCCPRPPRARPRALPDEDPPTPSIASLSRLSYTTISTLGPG
T1 sequence (P04150 whole entry): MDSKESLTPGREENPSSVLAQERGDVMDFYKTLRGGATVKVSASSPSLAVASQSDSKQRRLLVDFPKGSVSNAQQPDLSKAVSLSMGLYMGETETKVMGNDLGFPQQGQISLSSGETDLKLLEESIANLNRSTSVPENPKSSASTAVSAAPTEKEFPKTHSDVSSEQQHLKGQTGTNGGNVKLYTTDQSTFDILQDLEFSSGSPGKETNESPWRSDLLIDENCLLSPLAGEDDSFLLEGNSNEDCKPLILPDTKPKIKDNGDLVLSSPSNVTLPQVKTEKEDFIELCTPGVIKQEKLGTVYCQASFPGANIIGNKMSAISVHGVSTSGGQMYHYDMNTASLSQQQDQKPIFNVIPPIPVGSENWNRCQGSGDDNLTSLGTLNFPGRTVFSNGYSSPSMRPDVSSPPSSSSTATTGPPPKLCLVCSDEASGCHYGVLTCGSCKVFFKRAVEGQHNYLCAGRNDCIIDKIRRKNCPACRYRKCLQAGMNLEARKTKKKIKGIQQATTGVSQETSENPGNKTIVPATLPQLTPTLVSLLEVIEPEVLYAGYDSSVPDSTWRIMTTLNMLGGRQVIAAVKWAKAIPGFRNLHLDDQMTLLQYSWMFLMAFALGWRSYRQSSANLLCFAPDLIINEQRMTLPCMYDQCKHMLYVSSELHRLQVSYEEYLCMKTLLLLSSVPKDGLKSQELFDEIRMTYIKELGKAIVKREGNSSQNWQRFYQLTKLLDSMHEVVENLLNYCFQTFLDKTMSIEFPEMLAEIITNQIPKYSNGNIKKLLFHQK

For C[C@@H](CNC(=O)[C@H](O)C(C)(C)CO)NC(=O)c1cc(F)c(F)cc1F [MMV693183], which “% Inhibition of Control Specific Binding” value [1] is on record?
The value was -7.3%.

And the “% Inhibition of Control Specific Binding” value [2]?
Its value is -7.9% and -12.3% and -10.1%.

And the “% Inhibition of Control Specific Binding” value [3]?
Its value is 3.7% and -4.8% and -0.55%.

And the “% Inhibition of Control Specific Binding” value [4]?
Its value is -2.9% and 0.3% and -1.3%.

And the “% Inhibition of Control Specific Binding” value [5]?
Its value is -1.9% and 2.9% and 0.5%.

And the “% Inhibition of Control Specific Binding” value [6]?
The value was -13.7% and -11% and -12.35%.

And the “% Inhibition of Control Specific Binding” value [7]?
Its value is 10.5% and 16.3% and 13.4%.

And the “% Inhibition of Control Specific Binding” value [8]?
Its value is -1.6% and 2.2% and 0.3%.

And the “induction, GABA (non-selective)” value ([9]; 10 µM)?
Its value is 25.2%.

What about the “inhibition in cross-reactivity panel of human receptors, enzymes, or channels” value ([9]; 10 µM) of the same molecule?
The value was < 50%.

And the “inhibition/induction, all other binding assays” value ([9]; 10 µM)?
Its value is “less than 25%”.

What about the “% Inhibition of Control Specific Binding” value ([9]; AMPA (agonist radioligand)) of the same molecule?
The value was -3.3% and 6.3% and 1.5%.

What about the “% Inhibition of Control Specific Binding” value ([9]; BZD (central) (agonist radioligand)) of the same molecule?
Its value is -6% and -2.2% and -4.1%.

What about the “% Inhibition of Control Specific Binding” value ([9]; Ca2+ channel (L, dihydropyridine site) (antagonist radioligand)) of the same molecule?
Its value is -8.8% and -2.1% and -5.45%.

What about the “% Inhibition of Control Specific Binding” value ([9]; Ca2+ channel (L, diltiazem site) (benzothiazepines) (antagonist radioligand)) of the same molecule?
The value was -0.7% and -8.5% and -4.6%.

And the “% Inhibition of Control Specific Binding” value ([9]; Ca2+ channel (L, verapamil site) (phenylalkylamine) (antagonist radioligand))?
The value was -8.2% and -3.1% and -5.65%.

What about the “% Inhibition of Control Specific Binding” value ([9]; Cl- channel (GABA-gated) (antagonist radioligand)) of the same molecule?
Its value is 3.7% and 11.5% and 7.6%.

And the “% Inhibition of Control Specific Binding” value ([9]; D2S (h) (antagonist radioligand))?
Its value is 8.5% and 10.6% and 9.55%.

What about the “% Inhibition of Control Specific Binding” value ([9]; GABA transporter (antagonist radioligand)) of the same molecule?
Its value is -5.4% and -8% and -6.7%.

And the “% Inhibition of Control Specific Binding” value ([9]; IP (PGI2) (h) (agonist radioligand))?
The value was 1.7% and -1% and 0.35%.

And the “% Inhibition of Control Specific Binding” value ([9]; KV channel (antagonist radioligand))?
The value was 1.3% and -0.6% and 0.35%.

And the “% Inhibition of Control Specific Binding” value ([9]; MT1 (ML1A) (h) (agonist radioligand))?
The value was -0.2% and 6.2% and 3%.

And the “% Inhibition of Control Specific Binding” value ([9]; NMDA (antagonist radioligand))?
The value was -6% and -8.3% and -7.15%.

What about the “% Inhibition of Control Specific Binding” value ([9]; Na+ channel (site 2) (antagonist radioligand)) of the same molecule?
Its value is 17.2% and 13.3% and 15.25%.

What about the “% Inhibition of Control Specific Binding” value ([9]; P2Y (agonist radioligand)) of the same molecule?
Its value is -7.4% and -3% and -5.2%.

And the “% Inhibition of Control Specific Binding” value ([9]; SKCa channel (antagonist radioligand))?
Its value is -1.2% and 2.1% and 0.45%.

What about the “% Inhibition of Control Specific Binding” value ([9]; Y (non-selective) (agonist radioligand)) of the same molecule?
Its value is -24.9% and -15.9% and -20.4%.

And the “% Inhibition of Control Specific Binding” value ([9]; kainate (agonist radioligand))?
The value was -0.8% and 7.7% and 3.45%.

And the “% Inhibition of Control Specific Binding” value ([9]; opioid (non-selective) (antagonist radioligand))?
The value was 4.1% and 0.3% and 2.2%.

And the “% Inhibition of Control Specific Binding” value ([9]; α1 (non-selective) (antagonist radioligand))?
Its value is 2.6% and 11.7% and 7.15%.

And the “% Inhibition of Control Specific Binding” value ([9]; α2 (non-selective) (antagonist radioligand))?
Its value is -11.5% and -12.5% and -12%.

What about the “%Viability” value ([10]; Batch R14I19, 0.1 µM) of the same molecule?
Its value is 103%.

And the “%Viability” value ([10]; Batch R14I19, 0.5 µM)?
Its value is 105%.

And the “%Viability” value ([10]; Batch R14I19, 1 µM)?
Its value is 101%.

And the “%Viability” value ([10]; Batch R14I19, 5 µM)?
The value was 101%.

What about the “%Viability” value ([10]; Batch R14I19, 10 µM) of the same molecule?
The value was 101%.

And the “%Viability” value ([10]; Batch R17G25, 0.1 µM)?
Its value is 111%.

What about the “%Viability” value ([10]; Batch R17G25, 0.5 µM) of the same molecule?
The value was 109%.

What about the “%Viability” value ([10]; Batch R17G25, 1 µM) of the same molecule?
Its value is 111%.

And the “%Viability” value ([10]; Batch R17G25, 5 µM)?
Its value is 106%.

And the “%Viability” value ([10]; Batch R17G25, 10 µM)?
The value was 106%.

And the IC50 ([10]; primary rat hepatocytes)?
Its IC50 is > 10 µM.

Reference: publication PMC9021288 (Nature Communications, 2022)
